Assay results: US8058281B2, “Use of adenine-derived compounds for the treatment of lupus” (Centre National de la Recherche Scientifique (CNRS), priority 2006, dated 2011)
Where “and” joins values, the source holds several entries; their conditions need not be identical. Equal entries are not always repeated. Where two headings read alike, the source gives them in different places.

Assays:
[1] = tested on: TNF-α secretion by PBMCs of a lupus patient; test: Basal TNF-α secretion by mononuclear blood cells of a lupus patient; type: cell-based; conditions: Homo sapiens, PBMC, no LPS stimulation, one lupus patient, read-out: inhibition of spontaneous (basal) TNF-α secretion
Method: FIG. 6: Inhibition of TNF-α secretion by PBMCs of a lupus patient after incubation with NCS 613. The blood cells of a lupus patient (LED2) were incubated in the presence or absence of NCS 613 (10 μM). Supernatants were recovered after 24 hours of culture and the level of TNF-α in the supernatants was measured by ELISA. The results are given as TNF-α concentration after incubation in the presence or absence of NCS 613 and the percentage inhibition of TNF-α secretion after incubation with NCS 613 is shown. Error bars show the standard deviation of duplicates.
(§1) The blood of 5 patients with lupus, rheumatoid arthritis or Sjögren's syndrome was collected directly in heparinated tubes. Mononuclear blood cells were separated by centrifugation (30 min at 600 g) on a Ficoll gradient. Cells were then grown at a concentration of 2×10^5 cells per well in the presence or absence of compound NCS 613 (10 μM) for 45 minutes then stimulated with LPS. Supernatants were recovered after 24 hours of culture and the level of TNF-α in supernatants was measured by double sandwich ELISA (BD Biosciences).
So the ability of compound NCS 613 to inhibit basal TNF-α secretion was studied in blood cells of this patient.

PDE2 = molecular target: T1, PDE2 (Homo sapiens, UniProt O00408); test: PDE2 inhibition, radioenzyme assay, enzyme isolated from platelets; type: biochemical; conditions: 1 μM substrate
T1 construct: from tissue; host or cells: human platelets, cytosol, DEAE-Sephacel then MonoQ HPLC
T1 sequence (O00408 whole entry): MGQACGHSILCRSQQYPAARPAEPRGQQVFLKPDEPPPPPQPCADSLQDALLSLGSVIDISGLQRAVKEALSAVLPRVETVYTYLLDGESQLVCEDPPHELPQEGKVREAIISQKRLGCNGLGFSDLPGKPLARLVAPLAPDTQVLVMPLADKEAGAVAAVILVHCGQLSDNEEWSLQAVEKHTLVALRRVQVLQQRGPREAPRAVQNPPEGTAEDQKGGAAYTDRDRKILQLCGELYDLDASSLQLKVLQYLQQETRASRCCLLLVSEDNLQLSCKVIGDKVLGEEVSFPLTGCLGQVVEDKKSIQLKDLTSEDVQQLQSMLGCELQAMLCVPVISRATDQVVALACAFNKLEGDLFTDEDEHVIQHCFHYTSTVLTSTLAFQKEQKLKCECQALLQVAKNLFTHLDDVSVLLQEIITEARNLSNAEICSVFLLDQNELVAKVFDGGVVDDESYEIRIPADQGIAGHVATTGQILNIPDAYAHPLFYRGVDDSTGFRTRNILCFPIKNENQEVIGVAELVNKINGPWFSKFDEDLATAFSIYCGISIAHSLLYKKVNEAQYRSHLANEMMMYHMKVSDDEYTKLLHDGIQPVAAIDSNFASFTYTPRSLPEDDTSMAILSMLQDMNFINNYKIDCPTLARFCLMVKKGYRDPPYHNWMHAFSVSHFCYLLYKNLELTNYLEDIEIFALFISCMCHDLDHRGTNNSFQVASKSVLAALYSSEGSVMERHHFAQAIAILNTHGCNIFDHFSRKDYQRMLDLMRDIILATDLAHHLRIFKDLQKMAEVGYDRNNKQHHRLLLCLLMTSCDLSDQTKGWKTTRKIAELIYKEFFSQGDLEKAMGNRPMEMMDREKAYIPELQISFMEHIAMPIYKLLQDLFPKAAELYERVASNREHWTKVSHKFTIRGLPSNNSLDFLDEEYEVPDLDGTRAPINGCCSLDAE
Method: (§2) Cyclic nucleotides phosphodiesterase activity was measured by a radioenzyme method using tritiated cyclic AMP or GMP (1 μM) as substrate (Lugnier C. et al., Biochem. Pharmacol. (1986) 35, 1743-1751; Keravis T et al., Meth. Mol. Biol. (2005) 307, 63-74.). Tritiated adenosine or guanosine monophosphate formed by hydrolysis of the labelled cyclic nucleotide was transformed, in a second incubation with excess nucleotidase, into tritiated adenosine or guanosine. The formed nucleoside was separated from nucleotides by anion exchange resin chromatography. The radioactivity of the nucleoside was measured by liquid scintillation. Enzyme incubations were carried out under conditions in which there was no more than 15% of substrate hydrolysis, and each point was repeated.
Washed human platelets from the French Blood Bank (Etablissement Francais du Sang) in Strasburg were left to stand, then the sedimented cells were homogenised in buffer A and centrifuged at 105.000 g for 1 hour. The supernatant was subject to chromatography following the procedure already described for the aortic media (C-2). Then the fractions rich in PDE2 (activity stimulated by 5 μM cGMP) were subject to HPLC chromatography using Pharmacia's MonoQ H/R 5×5. The fraction containing PDE2 was aliquoted and stored at −80° C. (Kameni Tcheudji J. F et al, J. Mol. Biol. (2001) 310, […].). […]

PDE6 = PDE6 (so in the source) inhibition, radioenzyme assay, enzyme isolated from vascular tissue; type: biochemical, bovine; conditions: PDEs isolated from vascular tissue; 1 μM substrate
Method: as §2, with “Enzyme incubations were carried out under conditions in which there was no more than 15% of substrate hydrolysis, and each point was repeated.” left out
(§3) A 3 g piece of bovine aortic media was chopped up with scissors, homogenised using an Ultra-Turrex then using a glass/glass Potter in 7 volumes/weight of buffer A containing a cocktail of protease inhibitors (20 mM Tris-HCl, 0.25 M saccharose, 2 mM magnesium acetate, 1 mM dithiothreitol, 5 mM EGTA, 2000 U/ml aprotinine, 10 mg/l leupeptine and 10 mg/l soy-bean trypsin inhibitor). […] The column was washed until no absorption at 280 nm could be detected, then elution was with a linear NaCl gradient (0-0.5 M) in buffer B. 3 ml fractions were collected and enzymatic activity was measured under various conditions so as to determine the peaks of enzymatic activity contained in the fractions for, in the order of elution, PDE1, PDE5, PDE3 and PDE4. […]

MRL/lpr mice [2] = test: Anti-double-stranded DNA antibodies in serum of MRL/lpr mice (ELISA); type: in vivo, mouse; conditions: for percentage of mice positive for anti-DNA Abs in serum: positive = OD > 1; for age at which first anti-DNA Ab positive mice appeared: treatment stopped at 13 weeks
Method: FIG. 4: Effect of compound NCS 613 and denbufylline on anti-double-stranded DNA Abs. The presence of Abs directed against DNA in murine serums was measured at different ages (in weeks) by ELISA. Results are shown as a percentage of positive mice. A mouse is defined as positive when the optical density (OD) measured by ELISA is greater than 1.
(§4) Pre-autoimmune female MRL/lpr mice aged 5 weeks received by intravenous route, either buffered saline (PBS; control group, 100 μl per mouse), or compound NCS 613, (30 μg/100 μl per mouse, diluted in saline solution containing 10% ethanol), or denbufylline (100 μg/100 μl per mouse, diluted in saline solution containing 10% ethanol). The […] groups were composed of 10 mice each. The administrations (4 in number) were carried out at the ages of 5, 7, 9 and 13 weeks, and mice were monitored regularly (observations, proteinuria test by Albutix strip, blood tests).
The presence of Abs directed against DNA in murine serums was measured at different ages by ELISA (Monneaux et al., Eur. J. Immunol. (2003) 33, 287-296; Monneaux et al, Arthritis Rheum (2004) 50, 3232-3238.). Calf thymus double-stranded DNA (Sigma) was adsorbed (100 ng/ml) on 96 well polyvinyl chloride plates (Falcon) and incubated overnight at 37° C. After three washes and a saturation step in PBS-Tween buffer containing bovine serum albumin, serums (diluted to 1/500) were incubated for one hour at 37° C. […] The absorbance was measured at 450 nm by spectrophotometry after the reaction had been stopped.

MRL/lpr mice [3] = test: Proteinuria in MRL/lpr lupus mice; type: in vivo, mouse
Method: FIG. 1: Effect of compound NCS 613 and denbufylline on proteinuria in MRL/lpr mice. Up to the age of 13 weeks, the mice received 4 administrations either of 30 μg of compound NCS 613 or of 100 μg of denbufylline.
as §4

MRL/lpr mice [4] = test: Survival of MRL/lpr lupus mice; type: in vivo, mouse; conditions: for effect on survival / life expectancy of MRL/lpr mice: 4 i.v. administrations (NCS 613 30 μg, denbufylline 100 μg), followed to 26 weeks
Method: FIG. 2: Effect of compound NCS 613 (A) and denbufylline (B) on survival of MRL/lpr lupus mice. Up to the age of 13 weeks, the mice received 4 administrations either of 30 μg of compound NCS 613 or of 100 μg of denbufylline. The results are expressed in percentage survival of mice. Control mice received only PBS (phosphate buffered saline, pH 7.4) without the active ingredient.
as §4

PDE5 = molecular target: T2, PDE5 (Bos taurus, UniProt Q28156); test: PDE5 inhibition, radioenzyme assay, enzyme isolated from vascular tissue; type: biochemical, bovine; conditions: PDEs isolated from vascular tissue; 1 μM substrate
T2 construct: Effects of compound NCS 613 on PDEs isolated; from tissue; host or cells: bovine aortic media, cytosol, DEAE-Sephacel fraction
Method: as §2, with “Enzyme incubations were carried out under conditions in which there was no more than 15% of substrate hydrolysis, and each point was repeated.” left out
as §3

PDE4 = PDE4 inhibition, radioenzyme assay, enzyme isolated from vascular tissue; type: biochemical, bovine; conditions: PDEs isolated from vascular tissue; 1 μM substrate
Method: as §2, with “Enzyme incubations were carried out under conditions in which there was no more than 15% of substrate hydrolysis, and each point was repeated.” left out
as §3

[5] = tested on: TNF-α secretion by PBMCs of patients with auto-immune diseases; test: TNF-α secretion after LPS stimulation of mononuclear blood cells of autoimmune patients; type: cell-based, human; conditions: for inhibition at 10 µM: Homo sapiens, PBMC
Method: FIG. 5. Inhibition of TNF-α secretion by compound NCS 613 after LPS stimulation of the PBMCs of patients with auto-immune diseases. Blood cells from patients with lupus (SLE), rheumatoid arthritis (RA) and Sjögren's syndrome (SS) were incubated for 45 minutes in the presence or absence of NCS 613 (10 μM), then stimulated with LPS. The supernatants were recovered after 24 hours of culture and the level of TNF-α in supernatants was measured by ELISA. The results are given in TNF-α concentration after incubation in the presence or absence of NCS 613 (A) or as inhibition of TNF-α secretion after incubation with NCS 613 (B). Error bars show the standard deviation of duplicates.
as §1

PDE1 = PDE1 inhibition, radioenzyme assay, enzyme isolated from vascular tissue; type: biochemical, bovine; conditions: PDEs isolated from vascular tissue; 1 μM substrate
Method: as §2, with “Enzyme incubations were carried out under conditions in which there was no more than 15% of substrate hydrolysis, and each point was repeated.” left out
as §3

[6] = tested on: TNF-α secretion by blood cells of MRL/lpr mice; test: TNF-α secretion by blood cells from treated mice after ex vivo LPS stimulation; type: in vivo, mouse; conditions: LPS 24 h ex vivo
Method: FIG. 3: Effect of compound NCS 613 and denbufylline on the production of TNF-α by blood cells from treated mice after LPS stimulation. TNF-α secretion by blood cells from mice having received saline solution (PBS), compound NCS 613 or denbufylline after ex vivo LPS stimulation for 24 hours was measured in the supernatants by ELISA. The error bars show the standard deviation of duplicates, and the percentage inhibition of TNF-α secretion as a function of the secretion measured in the PBS group is shown. The figures refer to experiments carried out on mice aged 11 (A) and 14 (B) weeks.
as §4
TNF-α secretion was measured after bacterial lipopolysaccharide (LPS) stimulation of mouse blood cells (blood pooled from the 7 mice per group). LPS cell stimulation for 24 hours generates TNF-α secretion which can then be measured in culture supernatants. Cells from the blood of the 3 groups of mice were separated on a Ficoll gradient, and then stimulated by LPS. Supernatants were collected after 24 hours of culture, and the presence of TNF-α in supernatants was measured by a double sandwich ELISA test (BD Biosciences). This experiment was carried out at different ages (11 and 14 weeks, that is 2 weeks after the 3rd administration and 1 week after the 4th administration respectively).

recombinant PDE4B = recombinant PDE4B (Homo sapiens, UniProt Q07343); test: Inhibition of recombinant PDE4 subtype PDE4B; type: biochemical
recombinant PDE4B, sequence (Q07343 whole entry, species assumed): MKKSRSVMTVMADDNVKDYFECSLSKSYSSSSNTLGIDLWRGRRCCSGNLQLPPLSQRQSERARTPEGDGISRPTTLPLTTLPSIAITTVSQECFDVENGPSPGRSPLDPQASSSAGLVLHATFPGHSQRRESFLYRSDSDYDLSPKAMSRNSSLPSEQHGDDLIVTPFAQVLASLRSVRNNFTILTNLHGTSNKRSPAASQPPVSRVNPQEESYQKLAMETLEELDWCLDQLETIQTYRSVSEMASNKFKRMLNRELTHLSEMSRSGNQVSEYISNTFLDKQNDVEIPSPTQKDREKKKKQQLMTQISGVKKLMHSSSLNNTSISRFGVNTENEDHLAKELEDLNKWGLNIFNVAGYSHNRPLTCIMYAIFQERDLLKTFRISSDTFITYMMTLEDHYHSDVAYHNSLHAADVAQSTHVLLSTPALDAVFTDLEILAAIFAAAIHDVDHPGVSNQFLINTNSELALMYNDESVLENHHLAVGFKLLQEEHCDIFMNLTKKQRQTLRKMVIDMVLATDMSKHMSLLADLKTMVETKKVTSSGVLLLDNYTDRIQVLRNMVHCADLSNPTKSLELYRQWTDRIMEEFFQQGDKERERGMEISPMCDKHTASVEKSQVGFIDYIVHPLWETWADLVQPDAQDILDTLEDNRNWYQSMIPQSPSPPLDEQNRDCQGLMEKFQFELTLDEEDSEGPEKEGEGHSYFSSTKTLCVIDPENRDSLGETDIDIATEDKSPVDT
Method: as §2
(§5) The concentration of the substance causing 50% inhibition of enzymatic activity (IC50) at 1 μM substrate was calculated by non-linear regression (Prism, GraphPad) with the help of the results obtained for compound concentrations that varied as the molecule concentration was increased from 1 nM to 300 μM. Because of solubility problems, the maximum concentration used in this study was limited to 300 μM.

recombinant PDE4D = recombinant PDE4D (Homo sapiens, UniProt Q08499); test: Inhibition of recombinant PDE4 subtype PDE4D; type: biochemical
recombinant PDE4D, sequence (Q08499 whole entry, species assumed): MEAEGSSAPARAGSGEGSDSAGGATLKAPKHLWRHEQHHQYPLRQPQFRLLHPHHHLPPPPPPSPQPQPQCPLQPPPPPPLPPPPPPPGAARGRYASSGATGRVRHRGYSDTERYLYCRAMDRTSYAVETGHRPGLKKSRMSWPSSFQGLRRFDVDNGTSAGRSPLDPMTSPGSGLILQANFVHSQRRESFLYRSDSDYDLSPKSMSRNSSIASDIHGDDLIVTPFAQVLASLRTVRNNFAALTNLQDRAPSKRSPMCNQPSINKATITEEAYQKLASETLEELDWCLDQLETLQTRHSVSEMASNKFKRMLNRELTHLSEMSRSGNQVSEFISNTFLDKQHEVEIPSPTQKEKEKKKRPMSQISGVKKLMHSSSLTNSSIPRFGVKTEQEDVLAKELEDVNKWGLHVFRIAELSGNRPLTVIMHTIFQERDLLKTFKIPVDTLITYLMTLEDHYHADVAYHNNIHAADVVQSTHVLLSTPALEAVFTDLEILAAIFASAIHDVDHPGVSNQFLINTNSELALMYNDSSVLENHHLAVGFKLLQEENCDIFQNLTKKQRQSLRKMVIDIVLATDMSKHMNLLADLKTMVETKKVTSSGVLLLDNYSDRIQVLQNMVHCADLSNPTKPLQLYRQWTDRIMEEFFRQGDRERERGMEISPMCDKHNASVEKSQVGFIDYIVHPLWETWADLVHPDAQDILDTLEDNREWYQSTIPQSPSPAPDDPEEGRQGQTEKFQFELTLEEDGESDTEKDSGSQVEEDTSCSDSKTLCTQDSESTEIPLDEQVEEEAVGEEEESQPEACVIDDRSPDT
Method: as §2, §5

recombinant PDE4C = recombinant PDE4C (Homo sapiens, UniProt Q08493); test: Inhibition of recombinant PDE4 subtype PDE4C; type: biochemical
recombinant PDE4C, sequence (Q08493 whole entry, species assumed): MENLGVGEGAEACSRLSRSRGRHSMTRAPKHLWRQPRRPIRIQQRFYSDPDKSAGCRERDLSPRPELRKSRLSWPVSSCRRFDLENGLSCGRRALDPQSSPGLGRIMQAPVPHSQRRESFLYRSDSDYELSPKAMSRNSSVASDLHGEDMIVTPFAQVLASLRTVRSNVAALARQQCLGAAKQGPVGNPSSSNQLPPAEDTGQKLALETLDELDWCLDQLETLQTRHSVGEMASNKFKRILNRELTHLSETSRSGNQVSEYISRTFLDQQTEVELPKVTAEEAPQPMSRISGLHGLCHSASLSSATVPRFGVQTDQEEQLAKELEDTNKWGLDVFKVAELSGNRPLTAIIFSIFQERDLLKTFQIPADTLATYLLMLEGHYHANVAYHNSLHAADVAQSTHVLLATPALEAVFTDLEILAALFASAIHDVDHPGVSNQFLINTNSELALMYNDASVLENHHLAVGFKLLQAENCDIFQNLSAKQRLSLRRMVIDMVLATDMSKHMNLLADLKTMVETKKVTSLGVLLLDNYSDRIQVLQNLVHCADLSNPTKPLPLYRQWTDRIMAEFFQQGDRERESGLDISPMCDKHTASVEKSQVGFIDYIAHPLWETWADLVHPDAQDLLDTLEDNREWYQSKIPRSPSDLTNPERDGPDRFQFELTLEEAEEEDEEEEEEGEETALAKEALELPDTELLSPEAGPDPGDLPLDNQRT
Method: as §2, §5

recombinant PDE4A = recombinant PDE4A (Homo sapiens, UniProt P27815); test: Inhibition of recombinant PDE4 subtype PDE4A; type: biochemical
recombinant PDE4A, sequence (P27815 whole entry, species assumed): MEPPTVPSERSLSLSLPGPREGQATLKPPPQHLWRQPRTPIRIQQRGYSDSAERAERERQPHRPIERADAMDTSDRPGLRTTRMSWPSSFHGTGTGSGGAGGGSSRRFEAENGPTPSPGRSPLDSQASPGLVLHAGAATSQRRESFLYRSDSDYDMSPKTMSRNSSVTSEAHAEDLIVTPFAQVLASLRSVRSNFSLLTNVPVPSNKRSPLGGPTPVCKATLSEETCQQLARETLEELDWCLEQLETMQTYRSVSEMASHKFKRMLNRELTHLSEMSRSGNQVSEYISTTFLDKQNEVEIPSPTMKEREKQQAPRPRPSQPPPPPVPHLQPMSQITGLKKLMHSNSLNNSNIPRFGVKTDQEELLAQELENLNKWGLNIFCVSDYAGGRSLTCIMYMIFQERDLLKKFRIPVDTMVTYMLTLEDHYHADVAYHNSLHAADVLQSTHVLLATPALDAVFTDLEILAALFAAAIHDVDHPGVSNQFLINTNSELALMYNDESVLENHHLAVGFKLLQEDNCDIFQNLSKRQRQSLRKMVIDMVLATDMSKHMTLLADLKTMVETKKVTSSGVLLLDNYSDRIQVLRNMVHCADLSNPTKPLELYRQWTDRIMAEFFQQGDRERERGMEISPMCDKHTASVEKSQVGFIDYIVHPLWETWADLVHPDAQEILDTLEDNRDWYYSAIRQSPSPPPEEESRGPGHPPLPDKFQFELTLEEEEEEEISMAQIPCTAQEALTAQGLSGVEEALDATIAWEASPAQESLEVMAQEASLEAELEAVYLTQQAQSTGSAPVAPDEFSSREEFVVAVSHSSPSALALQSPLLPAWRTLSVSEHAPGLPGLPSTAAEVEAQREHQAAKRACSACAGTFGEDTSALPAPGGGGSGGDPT
Method: as §2, §5

[7] = at 20 weeks of age, 4 i.v. administrations at 5, 7, 9, 13 weeks (NCS 613 30 μg, denbufylline 100 μg)
[8] = mice aged 11 weeks (2 weeks after 3rd administration)
[9] = mice aged 14 weeks (1 week after 4th administration)

SMILES	IC50 (PDE2)	age at which first anti-DNA Ab positive mice appeared (MRL/lpr mice [2])	percentage of mice with proteinuria detected (MRL/lpr mice [3]; [7])	effect on survival / life expectancy of MRL/lpr mice (MRL/lpr mice [4])	IC50 (PDE5)	IC50 (PDE4)	IC50 (PDE1)	inhibition percentage of TNF-α secretion vs PBS control group [6, 8]	inhibition percentage of TNF-α secretion vs PBS control group [6, 9]	further results
CNc1nc(C(F)(F)F)nc2c1ncn2Cc1ccccc1F [NCS 613, 9-(2-fluorobenzyl)-N(6)-methyl-2-trifluoromethyladenine]	24 µM	20 weeks	50%	markedly prolongs the life expectancy	4.7 µM	0.042 µM	39 µM	44%	54%	inhibition at 10 µM [1]: 67%; IC50 (PDE6): > 300 µM; percentage of mice positive for anti-DNA Abs in serum (MRL/lpr mice [2]; at 20 weeks of age): 20%; percentage of mice positive for anti-DNA Abs in serum (MRL/lpr mice [2]; at 26 weeks of age, 13 weeks after end of treatment): 50%; percentage of mice with proteinuria detected (MRL/lpr mice [3]; at 14 weeks of age, 4 i.v. administrations at 5, 7, 9, 13 weeks (NCS 613 30 μg)): 10%; mortality (MRL/lpr mice [4]; at 21 weeks of age, 4 i.v. administrations of 30 μg): 30%; inhibition percentage of TNF-α secretion by mononuclear blood cells of lupus (SLE) patients, individual patients ([5]; 10 μM, LPS stimulation, 3 lupus patients): 69% and 91% and 98%; inhibition at 10 µM ([5]; LPS stimulation, mean of 3 patients, read-out: mean inhibition percentage of TNF-α secretion by mononuclear blood cells of lupus (SLE) patients): 86%; inhibition at 10 µM ([5]; patients with SLE, RA, Sjögren's syndrome, read-out: inhibition of TNF-α production by LPS-stimulated blood cells of autoimmune patients): 70 to 98%; IC50 (recombinant PDE4B): 0.05 µM; IC50 (recombinant PDE4D): 0.014 µM; IC50 (recombinant PDE4C): 0.0014 µM; IC50 (recombinant PDE4A): 0.043 µM
CCCCn1c(=O)c2c(ncn2CC(C)=O)n(CCCC)c1=O [Denbufylline, denbufylline, reference compound]	208 µM	14 weeks	equivalent to that of control mice	no acknowledged effect on mouse survival	5.4 µM	0.76 µM	33 µM	Equivalent results	even greater than that obtained with compound NCS 613	IC50 PDE6 (PDE6): n.s; age at which mortality begins (MRL/lpr mice [4]; 4 i.v. administrations of 100 μg): 15 weeks
